Laboratory results: the NIST ThermoML archive (doi:10.1007/s10765-011-1111-y)
Where “and” joins values, the source holds several entries; their conditions need not be identical. Equal values may be shown once. Numbers after ± are expanded uncertainties.

Experiment: mn = molality of the nth substance listed, in mol/kg
Conditions: 101 kPa, Liquid, m1 = 1

## CC(=O)[O-].CC(=O)[O-].[Ca+2] [calcium acetate] + O
303.15 K
  viscosity: 1.545 ± 0.038 mPa·s and 1.563 ± 0.038 mPa·s
308.15 K
  viscosity: 1.412 ± 0.035 mPa·s
313.15 K
  viscosity: 1.265 ± 0.032 mPa·s
318.15 K
  viscosity: 1.127 ± 0.029 mPa·s
323.15 K
  viscosity: 0.999 ± 0.026 mPa·s

## CC(=O)[O-].[K+] [potassium ethanoate] + O
303.15 K
  viscosity: 0.975 ± 0.025 mPa·s
308.15 K
  viscosity: 0.8864 ± 0.023 mPa·s
313.15 K
  viscosity: 0.805 ± 0.021 mPa·s
318.15 K
  viscosity: 0.719 ± 0.019 mPa·s
323.15 K
  viscosity: 0.655 ± 0.018 mPa·s

## CC(=O)[O-].[Na+] [sodium ethanoate] + O
303.15 K
  viscosity: 1.095 ± 0.028 mPa·s
308.15 K
  viscosity: 1.005 ± 0.026 mPa·s
313.15 K
  viscosity: 0.9052 ± 0.024 mPa·s
318.15 K
  viscosity: 0.801 ± 0.021 mPa·s
323.15 K
  viscosity: 0.721 ± 0.019 mPa·s
